Like-named read-outs stand apart in the source and are kept apart here.

In assay [1] the target is T1, SENP1 (Homo sapiens, UniProt Q9P0U3).
T1 sequence (Q9P0U3 1-644): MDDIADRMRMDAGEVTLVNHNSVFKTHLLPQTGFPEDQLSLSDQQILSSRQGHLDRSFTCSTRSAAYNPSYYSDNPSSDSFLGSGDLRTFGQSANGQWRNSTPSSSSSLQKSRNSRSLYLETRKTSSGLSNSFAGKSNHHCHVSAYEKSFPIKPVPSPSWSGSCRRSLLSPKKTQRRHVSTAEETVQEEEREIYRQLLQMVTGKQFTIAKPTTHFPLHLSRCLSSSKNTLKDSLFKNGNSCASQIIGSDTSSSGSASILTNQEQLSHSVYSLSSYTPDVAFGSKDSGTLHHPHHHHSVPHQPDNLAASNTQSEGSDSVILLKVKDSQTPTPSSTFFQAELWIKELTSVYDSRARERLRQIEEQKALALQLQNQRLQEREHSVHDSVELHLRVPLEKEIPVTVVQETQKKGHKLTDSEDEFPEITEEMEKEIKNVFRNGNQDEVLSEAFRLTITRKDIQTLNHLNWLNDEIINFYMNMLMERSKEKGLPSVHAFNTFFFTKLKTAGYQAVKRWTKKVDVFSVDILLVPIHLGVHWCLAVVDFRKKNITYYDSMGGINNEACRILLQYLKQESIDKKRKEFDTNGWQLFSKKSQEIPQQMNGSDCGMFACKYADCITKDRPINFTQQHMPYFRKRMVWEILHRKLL
As to the kind of experiment: In vitro deSUMOylation assay with recombinant His-JAK2 and GST-SENP1. Also on record: made in house; host or cells: E. coli BL21 (DE3) for pET28a-JAK2. Format: biochemical. As to the method:
To further determine whether SENP1 can directly deSUMOylate JAK2, in vitro deSUMOylation assays were performed by using purified recombinant His-JAK2 and GST-SENP1 proteins.
In vitro SUMOylation assay. The SUMOylation reactions were performed according to the manufacture's instruction (BML-UW8955-0001; ENZO). Briefly, 200 nM of purified HIS-JAK2 was suspended in reaction buffer (20 μl) containing Mg-ATP, SUMO E1, SUMO E2 and recombinant SUMOs. RanGAP1 (provided in the kit) was used as the substrate for positive control. The reaction was incubated at 37° C. for 60 minutes and terminated by using 20 μl of SDS loading buffer. […] The reactions were then subjected to Western blot to evaluate SUMOylation level.
Protein expression and purification. pET28a-JAK2 and its mutant was transformed in BL21 (DE3) E. coli cells by heat shot method at 42° C. and grown in Luria Broth (LB) at 37° C. E. coli cells were induced with 0.5 mM IPTG to induct protein expression. Cells were harvested by centrifugation at 5,000 g, 4° C. for 15 min and the pellet was resuspended in lysis buffer (20 mM Tris pH 7.9, 500 mM NaCl, 5 mM imidazole, 2 mM DTT and 1× protease inhibitor cocktail). Cells were then sonicated and centrifuged at 14,000 g, 4° C. for 15 min. 1 ml of Ni-NTA was added to the supernatant and incubated at 4° C. with end-to-end mixing for 2 hours and subjected to a column. The Ni-NTA resin was washed with 10 ml wash buffer (20 mM Tris pH 7.9, 250 mM NaCl, 15 mM Imidazole and 0.5 mM DTT) and eluted with 1 ml elution buffer (20 mM Tris pH 7.9, 250 mM NaCl and 1 M imidazole). The elute was then concentrated by using a protein concentrator (Thermo Scientific™ Pierce™) and resuspend in dialysis buffer (50 mM Tris pH 7.9, 50 mM NaCl, 2 mM DTT, and 10% glycerol). The purified protein was stored at −80° C. pGEX-4T1-SENP1 and its mutant were purified using following buffers: lysis buffer (1 mM DTT, and lx protease inhibitor cocktail, 800 mM NaCl, 5 mM EDTA, 50 mM Tris-pH8.0, 0.1% Triton x-100), wash buffer (800 mM NaCl, 5 mM EDTA, 50 mM Tris-pH8.0, 0.1% Triton x-100), elution buffer (40 mM glutathione, 800 mM NaCl, 5 mM EDTA, 50 mM Tris-pH8.0, 0.1% Triton x-100), dialysis buffer (50 mM Tris pH 7.9, 50 mM NaCl, 2 mM DTT, and 10% glycerol).

For a further assay, the system named is PE023 cells. As to the kind of experiment: Cell viability assay (SRB) in PE023 cells. Format: cell-based. As to the method: (§1) Cell culture and resistance cell line establishment. IGROV1 cells, U2OS (HTB-96; ATCC), HEK293T (CRL-11268; ATCC) and SKOV3 cells (HTB-77; ATCC) were cultured at 37° C. in DMEM with 10% Fetal Bovine Serum (FBS). PEO1 (10032308; Sigma-Aldrich), PEO4 (10032309; Sigma-Aldrich), PEO14 (10032311; Sigma-Aldrich) and PE023 cells (10032313; Sigma-Aldrich) were cultured at 37° C. in RPMI-1640 with 10% FBS. OV90 (CRL-11732; ATCC) was cultured in medium containing 1:1 MCDB 105 (Sigma) and M199 (Sigma) supplemented with 10% FBS at 37 ° C. All the cells were cultured at in a humidified incubator with 5% CO2 atmosphere. Cisplatin resistant cell lines, including SKOV3 CR, IGROV1 CR and OV90 CR, were generated using an approach similar to that reported in Zhou et al., (2018) Oncogene 37, 3981-3997, the disclosure of which is incorporated herein in its entirety.
(§2) Cell viability assay. Cells were seeded at 3,000 cells/well in 96-well plates were treated with drugs, followed by incubation for 48 hours, after which cell viability was detected using Sulforhodamine B (SRB) assay (64). Absorbance at 510 nm was detected using a SpectraMax Reader (Molecular Devices) and analyzed with SoftMax Analysis Software (Molecular Devices). Combinational index (CI) values were calculated using CompuSyn software.

The next assay has as its system PEO4 cells. The assay can be described thus: Cell viability assay (SRB) in PEO4 cells. It counts as cell-based. As to the method:
as §1, §2

Assay [2] deals with T1, SENP1. The assay can be described thus: Cellular thermal shift assay. The note with it: IGROV1 cells, higher temperature.
Experimental: To determine whether UA binds to SENP1 directly, cellular thermal shift assays were performed in which a small molecule binds to a protein resulting in thermal stabilization of the protein.
Assay [3] concerns the target T1, SENP1. As to the kind of experiment: Cell free thermal shift assay with recombinant SENP1. It counts as binding. Also on record: GST (N); made in house; host or cells: E. coli implied (pGEX-4T1 vector; BL21 (DE3) is stated only for pET28a-JAK2).
Setting [4] is: recombinant GST-SENP1, 3 hours, read-out: IC50 to inhibit deSUMOylation of His-JAK2 in vitro.

By IC50 is commonly meant the concentration needed to halve the response being measured. Turning to `CC1(C)CC[C@]2(C(=O)O)CC[C@]3(C)C(=CC[C@@H]4[C@@]5(C)CC[C@H](O[C@@H]6O[C@H](C(=O)O)[C@@H](O)[C@H](O[C@@H]7OC[C@@H](O)[C@H](O)[C@H]7O)[C@H]6O)C(C)(C)[C@@H]5CC[C@]43C)[C@@H]2C1` [Mc, Momordin Ic], the IC50 at SENP1 [1] (in vitro, read-out: SENP1 activity was inhibited with IC50) was 15.4 µM; on SENP1 [1] (setting [4]) it was 19.9 µM. The re-sensitization to cisplatin entry in the assay on PE023 cells and in the assay on PEO4 cells was “re-sensitized” throughout. Besides, the “synergy with cisplatin (combination index)” value in the assay on PE023 cells and in the assay on PEO4 cells was “synergy” in each case.
For `C[C@H]1[C@H](C)CC[C@]2(C(=O)O)CC[C@]3(C)C(=CC[C@@H]4[C@@]5(C)CC[C@H](O)C(C)(C)[C@@H]5CC[C@]43C)[C@H]12` [UA, ursolic acid], the “fold more potency to inhibit deSUMOylation of His-JAK2 in vitro than Mc” value at SENP1 [1] (UA versus Mc) stood at 3000 fold. Besides, on SENP1 [1] (setting [4]), the IC50 was found to be 0.0064 µM. In addition, the “SENP1 protein thermal stabilization versus DMSO” value on SENP1 [2] is “stabilized”. In addition, the “thermal stabilization of recombinant SENP1 proteins” value on SENP1 [3] is given as “stabilized”.

For the origin of these results see US20230012172A1, “COMPOSITIONS AND METHODS FOR TREATMENT OF PLATINUM-BASED CHEMOTHERAPEUTIC RESISTANT TUMORS” (The George Washington University, priority 2020, published 2023).
